Measured values as given in US20260295053A1, “COMPOUNDS FOR DEGRADATION AND INHIBITION OF KRAS (G12D) PROTEIN” (Shenzhen Ionova Life Science Co., Ltd., priority 2023, published 2026).

Tests used:
KRAS (G12D) = biological target: T1, KRAS (G12D) (Homo sapiens, UniProt P01116, G12D); experiment: KRAS (G12D) cellular degradation assay in AsPC-1 cells; type: cell-based; conditions: 24 hours, antibody fluorescence (Odyssey CLX), DC50 half-maximal degradation concentration
T1 construct: in-cell western with KRAS G12D antibody after 24 h
T1 sequence (P01116 1-188 isoform P01116-2 G12D): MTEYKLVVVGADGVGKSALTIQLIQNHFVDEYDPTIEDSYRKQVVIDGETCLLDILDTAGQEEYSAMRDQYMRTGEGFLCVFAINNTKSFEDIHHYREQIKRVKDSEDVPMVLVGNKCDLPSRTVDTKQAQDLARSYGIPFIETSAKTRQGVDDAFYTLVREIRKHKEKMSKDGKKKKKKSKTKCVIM
How it was run: (§1)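 Half-maximal degradation (DC50) and inhibition (IC50) concentrations are fitted from dose-response curves spanning […] to 1.5 nM final. KRAS G12D loss is measured by fluorescent antibody staining with β-actin reference after 24 h; growth is measured by ATP luminescence after a 6-day exposure.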

AsPC-1 cells = experiment: AsPC-1 cell proliferation assay (CellTiter Glo); type: cell-based; conditions: 6 days
How it was run: as §1

DC50 (KRAS (G12D)) | IC50 (AsPC-1 cells; Homo sapiens, ASPC1, 144 h) | IC50 (AsPC-1 cells) | Structure (SMILES)
< 10 nM | < 10 nM |  | CCn1nccc1-c1ccc([C@H](CO)NC(=O)[C@@H]2C[C@@H](O)CN2C(=O)[C@H](C(C)C)n2cc(-c3ccc(COc4c(-c5c(C)c(F)cc6[nH]ncc56)c(C5CC5)cc5c(N(C)C[C@H]6CCNC6)nc(OC[C@H](C)OC)nc45)cc3)nn2)cc1 [Example 206, (2S,4R)-1-((2S)-2-(4-(4-(((6-cyclopropyl-7-(6-fluoro-5-methyl-1H-indazol-4-yl)-2-((S)-2-methoxypropoxy)-4-(methyl(((S)-pyrrolidin-3-yl)methyl)amino)quinazolin-8-yl)oxy)methyl)phenyl)-1H-1,2,3-triazol-1-yl)-3-methylbutanoyl)-N—((R)-1-(4-(1-ethyl-1H-pyrazol-5-yl)phenyl)-2-hydroxyethyl)-4-hydroxypyrrolidine-2-carboxamide]
< 10 nM | < 10 nM |  | CCn1nccc1-c1ccc([C@H](CO)NC(=O)[C@@H]2C[C@@H](O)CN2C(=O)[C@H](C(C)C)n2cc(-c3ccc(COc4c(-c5c(C)c(F)cc6[nH]nc(F)c56)c(C5CC5)cc5c(N6C[C@@H]7C[C@H]6CN7)nc(OC[C@H](C)OC)nc45)cc3)nn2)cc1 [Example 33, (2S,4R)-1-((2S)-2-(4-(4-(((4-((1S,4S)-2,5-diazabicyclo[2.2.1]heptan-2-yl)-6-cyclopropyl-7-(3,6-difluoro-5-methyl-1H-indazol-4-yl)-2-((S)-2-methoxypropoxy)quinazolin-8-yl)oxy)methyl)phenyl)-1H-1,2,3-triazol-1-yl)-3-methylbutanoyl)-N—((R)-1-(4-(1-ethyl-1H-pyrazol-5-yl)phenyl)-2-hydroxyethyl)-4-hydroxypyrrolidine-2-carboxamide]
< 10 nM | < 10 nM |  | CCn1nccc1-c1ccc([C@@H](NC(=O)[C@@H]2C[C@@H](O)CN2C(=O)[C@H](C(C)C)n2cc(-c3ccc(COc4c(-c5c(C)c(F)cc6[nH]ncc56)c(C5CC5)cc5c(N6C[C@@H]7C[C@H]6CN7)nc(OC6CCC7(CC6)COC7)nc45)cc3)nn2)[C@@H](C)O)cc1 [Example 130, (2S,4R)-1-((2S)-2-(4-(4-(((2-((2-oxaspiro[3.5]nonan-7-yl)oxy)-4-((1S,4S)-2,5-diazabicyclo[2.2.1]heptan-2-yl)-6-cyclopropyl-7-(6-fluoro-5-methyl-1H-indazol-4-yl)quinazolin-8-yl)oxy)methyl)phenyl)-1H-1,2,3-triazol-1-yl)-3-methylbutanoyl)-N-((1R,2R)-1-(4-(1-ethyl-1H-pyrazol-5-yl)phenyl)-2-hydroxypropyl)-4-hydroxypyrrolidine-2-carboxamide]
10 to 100 nM | 10 to 100 nM |  | CCn1nccc1-c1ccc([C@H](CO)NC(=O)[C@@H]2C[C@@H](O)CN2C(=O)[C@H](C(C)C)n2cc(-c3ccc(COc4c(-c5c(C)c(F)cc6[nH]ncc56)c(C5CC5)cc5c(N6C[C@H]7C[C@@H]6CN7)nc(OC6CCOCC6)nc45)cc3)nn2)cc1 (stereo in doubt) [Example 10, (2S,4R)-1-((2S)-2-(4-(4-(((4-((1R,4R)-2,5-diazabicyclo[2.2.1]heptan-2-yl)-6-cyclopropyl-7-(6-fluoro-5-methyl-1H-indazol-4-yl)-2-((tetrahydro-2H-pyran-4-yl)oxy)quinazolin-8-yl)oxy)methyl)phenyl)-1H-1,2,3-triazol-1-yl)-3-methylbutanoyl)-N—((R)-1-(4-(1-ethyl-1H-pyrazol-5-yl)phenyl)-2-hydroxyethyl)-4-hydroxypyrrolidine-2-carboxamide]
< 10 nM | < 10 nM |  | CCn1nccc1-c1ccc([C@@H](NC(=O)[C@@H]2C[C@@H](O)CN2C(=O)[C@H](C(C)C)n2cc(-c3ccc(COc4c(-c5c(C)c(F)cc6[nH]ncc56)c(C5CCC5)cc5c(N6C[C@@H]7C[C@H]6CN7)nc(OC[C@H](C)OC)nc45)cc3)nn2)[C@H](C)O)cc1 [Example 88, (2S,4R)-1-((2S)-2-(4-(4-(((4-((1S,4S)-2,5-diazabicyclo[2.2.1]heptan-2-yl)-6-cyclobutyl-7-(6-fluoro-5-methyl-1H-indazol-4-yl)-2-((S)-2-methoxypropoxy)quinazolin-8-yl)oxy)methyl)phenyl)-1H-1,2,3-triazol-1-yl)-3-methylbutanoyl)-N-((1R,2S)-1-(4-(1-ethyl-1H-pyrazol-5-yl)phenyl)-2-hydroxypropyl)-4-hydroxypyrrolidine-2-carboxamide]
< 10 nM | < 10 nM |  | CO[C@@H](C)COc1nc(N2C[C@@H]3C[C@H]2CN3)c2cc(C3CC3)c(-c3c(C)c(F)c(Cl)c4[nH]ncc34)c(OCc3ccc(-c4cn([C@H](C(=O)N5C[C@H](O)C[C@H]5C(=O)N[C@@H](CO)c5ccc(-c6scnc6C)cc5)C(C)C)nn4)cc3)c2n1 [Example 97, (2S,4R)-1-((2S)-2-(4-(4-(((4-((1S,4S)-2,5-diazabicyclo[2.2.1]heptan-2-yl)-7-(7-chloro-6-fluoro-5-methyl-1H-indazol-4-yl)-6-cyclopropyl-2-((S)-2-methoxypropoxy)quinazolin-8-yl)oxy)methyl)phenyl)-1H-1,2,3-triazol-1-yl)-3-methylbutanoyl)-4-hydroxy-N—((R)-2-hydroxy-1-(4-(4-methylthiazol-5-yl)phenyl)ethyl)pyrrolidine-2-carboxamide]
10 to 100 nM | 10 to 100 nM |  | CO[C@@H](C)COc1nc(N2C[C@@H]3C[C@H]2CN3)c2cc(C3CC3)c(-c3c(C)c(F)cc4[nH]ncc34)c(OCc3ccc(-c4cn([C@H](C(=O)N5C[C@H](O)C[C@H]5C(=O)N[C@H](C#Cc5cccc6scnc56)CO)C(C)C)nn4)cc3)c2n1 [Example 80]
< 10 nM | < 10 nM |  | CO[C@@H](C)COc1nc(N(C)[C@@H]2CCNC2)c2cc(C3CC3)c(-c3c(C)c(F)cc4[nH]ncc34)c(OCc3ccc(-c4cn([C@H](C(=O)N5C[C@H](O)C[C@H]5C(=O)N[C@H](c5ccc(-c6scnc6C)cc5)[C@H](C)O)C(C)C)nn4)cc3)c2n1 [Example 187, (2S,4R)-1-((2S)-2-(4-(4-(((6-cyclopropyl-7-(6-fluoro-5-methyl-1H-indazol-4-yl)-2-((S)-2-methoxypropoxy)-4-(methyl((R)-pyrrolidin-3-yl)amino)quinazolin-8-yl)oxy)methyl)phenyl)-1H-1,2,3-triazol-1-yl)-3-methylbutanoyl)-4-hydroxy-N-((1R,2S)-2-hydroxy-1-(4-(4-methylthiazol-5-yl)phenyl)propyl)pyrrolidine-2-carboxamide]
< 10 nM | < 10 nM |  | CO[C@@H](C)COc1nc(N2C[C@@H]3C[C@H]2CN3)c2cc(C3CC3)c(-c3c(C)c(F)cc4[nH]ncc34)c(OCc3ccc(-c4cn([C@H](C(=O)N5C[C@H](O)C[C@H]5C(=O)N[C@H](C#Cc5nn(C)c6ccccc56)CO)C(C)C)nn4)cc3)c2n1 [Example 71, (2S,4R)-1-((2S)-2-(4-(4-(((4-((1S,4S)-2,5-diazabicyclo[2.2.1]heptan-2-yl)-6-cyclopropyl-7-(6-fluoro-5-methyl-1H-indazol-4-yl)-2-((S)-2-methoxypropoxy)quinazolin-8-yl)oxy)methyl)phenyl)-1H-1,2,3-triazol-1-yl)-3-methylbutanoyl)-4-hydroxy-N—((R)-1-hydroxy-4-(1-methyl-1H-indazol-3-yl)but-3-yn-2-yl)pyrrolidine-2-carboxamide]
< 10 nM |  | < 10 nM | CCn1nccc1-c1ccc([C@@H](NC(=O)[C@@H]2C[C@@H](O)CN2C(=O)[C@H](C(C)C)n2cc(-c3ccc(COc4c(-c5c(C)c(F)cc6[nH]ncc56)c(C5CC5)cc5c(N(C)[C@H]6CCNC6)nc(OC[C@H](C)OC)nc45)cc3)nn2)[C@H](C)O)c2c1CC2 [Example 164, (2S,4R)-1-((2S)-2-(4-(4-(((6-cyclopropyl-7-(6-fluoro-5-methyl-1H-indazol-4-yl)-2-((S)-2-methoxypropoxy)-4-(methyl((S)-pyrrolidin-3-yl)amino)quinazolin-8-yl)oxy)methyl)phenyl)-1H-1,2,3-triazol-1-yl)-3-methylbutanoyl)-N-((1R,2S)-1-(5-(1-ethyl-1H-pyrazol-5-yl)bicyclo[4.2.0]octa-1(6),2,4-trien-2-yl)-2-hydroxypropyl)-4-hydroxypyrrolidine-2-carboxamide]
10 to 100 nM | < 10 nM |  | CCn1nccc1-c1ccc([C@H](CO)NC(=O)[C@@H]2C[C@@H](O)CN2C(=O)[C@H](C(C)C)n2cc(-c3ccc(COc4c(-c5c(C)c(F)cc6[nH]ncc56)c(C5CC5)cc5c(N6CC7CCC(C6)N7)nc(OC6CCOCC6)nc45)cc3)nn2)cc1 [Example 35, (2S,4R)-1-((2S)-2-(4-(4-(((4-(3,8-diazabicyclo[3.2.1]octan-3-yl)-6-cyclopropyl-7-(6-fluoro-5-methyl-1H-indazol-4-yl)-2-((tetrahydro-2H-pyran-4-yl)oxy)quinazolin-8-yl)oxy)methyl)phenyl)-1H-1,2,3-triazol-1-yl)-3-methylbutanoyl)-N—((R)-1-(4-(1-ethyl-1H-pyrazol-5-yl)phenyl)-2-hydroxyethyl)-4-hydroxypyrrolidine-2-carboxamide]

Structure (SMILES) | DC50 (KRAS (G12D)) | IC50 (AsPC-1 cells; Homo sapiens, ASPC1, 144 h) | IC50 (AsPC-1 cells)
CO[C@H]1C[C@H](Oc2nc(N(C)[C@H]3CCNC3)c3cc(C4CC4)c(-c4c(C)c(F)cc5[nH]ncc45)c(OCc4ccc(-c5cn([C@H](C(=O)N6C[C@H](O)C[C@H]6C(=O)N[C@@H](CO)c6ccc(-c7scnc7C)cc6)C(C)C)nn5)cc4)c3n2)C1 [Example 166, (2S,4R)-1-((2S)-2-(4-(4-(((6-cyclopropyl-7-(6-fluoro-5-methyl-1H-indazol-4-yl)-2-((1r,3S)-3-methoxycyclobutoxy)-4-(methyl((S)-pyrrolidin-3-yl)amino)quinazolin-8-yl)oxy)methyl)phenyl)-1H-1,2,3-triazol-1-yl)-3-methylbutanoyl)-4-hydroxy-N—((R)-2-hydroxy-1-(4-(4-methylthiazol-5-yl)phenyl)ethyl)pyrrolidine-2-carboxamide] | < 10 nM | < 10 nM | 
